Test results as given in US5965720A, “Oligonucleotide N3'→P5' phosphoramidates” (Lynx Therapeutics, Inc., priority 1997, dated 1999).
“Also recorded” adds a separate entry of the source. [np] = N3'→P5' phosphoramidate

Tests used:
complementary DNA strand = assay: Thermal dissociation of duplexes with complementary DNA strand; format: binding
Description: (§1) The hybridization properties of the phosphoramidate analogs were evaluated relative to complementary DNA or RNA strands having standard phosphodiester intersubunit linkages. The thermal stability data for duplexes generated from phosphoramidate analogs and phosphodiester oligomers are summarized in FIG. 3 (Example 1).
(§2) The same trend is true for the mixed-base undecanucleotide 6 (FIG. 3), where the Tm 's of duplexes with complementary DNA and RNA strands were 49.2° C. and 72.4° C., respectively, (FIG. 3, experiments 13, 14).
Thermal dissociation curves were obtained using a Carry IE spectrophotometer (Varian, Palo Alto, Calif.) that was equipped with a temperature controller (Varian). […]
(§3) The molar extinction coefficients used for oligo(dT), poly(dA) and poly(A) were 8.2, 8.4, and 10.2 A260 ×10^3, respectively. An extinction coefficient of 109 A260 Units/μM was used for the mixed-based oligomers--the extinction coefficient was calculated from the table compiled by P. N. Borer (1975).
Reaction solutions were equilibrated at 0° C. and the absorbance at 260 nm was followed as the temperature was increased in increments of 3° C. per 5 minutes. The fraction of an oligomer in the bound state, α,at a given temperature was determined by use of upper and lower base lines as described by Abergo, et al. (1981). […]

complementary RNA strand = assay: Thermal dissociation of duplexes with complementary RNA strand; format: binding
Description: as §1, §2
Thermal dissociation curves were obtained using a Carry IE spectrophotometer (Varian, Palo Alto, Calif.) that was equipped with a temperature controller (Varian). The reaction solutions contained equivalent concentrations of oligomer and complement (approximately 6 μM in oligomer strand) in 15 mM phosphate buffer at pH 7.05, with NaCl added to give a total Na+ concentration of 100 mM.
as §3
Reaction solutions were equilibrated at 0° C. and the absorbance at 260 nm was followed as the temperature was increased in increments of 3° C. per 5 minutes. The fraction of an oligomer in the bound state, α,at a given temperature was determined by use of upper and lower base lines as described by Abergo, et al. (1981). Tm values are defined as the temperature at which α=0.5. Plots of Ink (Marky, et al., 1987) versus 1/T were linear for these compounds.
In the table, Tm is the temperature at the midpoint of the melting curve; np is the abbreviation for the 3'--NHP(O)(O^-)0-5' phosphoramidate link.
The concentrations of oligonucleotides were typically at 5 μM oligomer strands. Buffer A (10 mM Tris HCl, 150 mM NaCl, pH 7.02) was used for duplex thermal stability studies.

[1] = test system: single mismatch RNA target; assay: Thermal dissociation of duplexes with single mismatch RNA target; format: binding; details: mismatch discrimination
Description: Hybridization of the phosphoramidate oligonucleotides with complementary nucleic acids is sequence specific and determined by the proper Watson-Crick base pairing.
Reaction solutions were equilibrated at 0° C. and the absorbance at 260 nm was followed as the temperature was increased in increments of 3° C. per 5 minutes. […] Tm values are defined as the temperature at which α=0.5.

[2] = test system: dA10:dT10 duplex region of the hairpin DNA target d(A10 C4 T10); assay: Triplex melting with hairpin DNA target d(A10 C4 T10); format: binding
Description: Melting curves were obtained for triplexes formed by the decathymidilic phosphoramidate […] and the dA10 :dT10 duplex region of the hairpin DNA target d(A10 C4 T10) (FIG. 3, experiment 7).
(§4) Triplex thermal stabilities were evaluated essentially as described above for duplexes.
FIGS. 7A to 7D present exemplary triplex melting curves. FIGS. 7A and 7C present normalized absorbance at 260 nm plotted against temperature. FIGS. 7B and 7D present normalized absorbance at 284 nm plotted against temperature. In the figures: the triplexes formed by double stranded DNA and phosphoramidate Oligonucleotide 3 correspond to the black circle line; triplexes formed with phosphodiester Oligonucleotide 1 correspond to open squares line).
The data correspond to FIG. 3, experiment 7 where curves (A) and (C) were thermal stability studies performed using buffers A and B, respectively, with hyperchromicity monitored at 260 nm. Curves (B) and (D) are (A) and (C) respectively, but where hyperchromicity was monitored at 284 nm.

[3] = test system: 26-mer hairpin target (SEQ ID NO:22); assay: Gel band mobility shift assay, 26-mer hairpin target; format: binding; details: native conditions, essentially as for Oligonucleotide 3
Source text: The conditions of the gel band mobility shift assay were essentially as described above.

HL60 cells = assay: Leukemic cell proliferation / cytotoxicity, HL60 cells (no BCR/ABL breakpoint); format: cell-based
Description: (§5) N3'→P5' phosphoramidate linkage containing anti-sense oligonucleotides were synthesized which were complementary to the BCR/ABL fusion junction (B2A2) in leukemic cell line BV173. The following assay measures leukemic cell proliferation and is performed essentially as described by Anfossi, et al. (1989).
(§6) Briefly, FIG. 10 illustrates the effect of BCR-ABL oligomers on leukemic cell proliferation of BV173 cells carrying the B2A2-type break points. BV173 is a leukemic cell line with the B2A2 BCR/ABL fusion junction (Pegoraro, et al., 1983). HL60 is a promyelocytic leukemic cell line with a normal c-abl locus (Collins, et al., 1977). K562 is a leukemic cell line with the B3A2 BCR/ABL fusion junction (Seelig, et al., 1993).
(§7) Cells (5×10^4) were placed in 0.2 ml of liquid suspension culture (Iscove's modified Dulbecco's modified medium with 2% human AB serum--Life Technologies, Gaithersburg, Md.).
(§8) The oligonucleotides were administered to the cultures at 24 hour intervals for three days (days 0, 1 and 2) to achieve the incremental concentrations shown in the legends of FIGS. 10-19 (all concentrations in μg/mL), for example, FIG. 10--40/20/20; 20/10/10; 10/5/5; and 5/2.5/2.5. Note that, for example, 40/20/20 reflects a final total concentration of 80 μg/ml in the cell culture medium after the last oligonucleotide addition. Cell counts were performed by standard methods.

K562 cells = assay: Leukemic cell proliferation / cytotoxicity, K562 cells (B3A2 BCR/ABL fusion junction); format: cell-based; details: FIG. 15
Description: as §5, §6, §7, §8

BV173 cells = assay: Leukemic cell proliferation, BV173 cells (B2A2 BCR/ABL fusion junction); details: for shape of inhibition curves at later time points after partial release of inhibition: FIGS. 14 and 18; for inhibition of BV173 leukemia cell growth relative to phosphoramidate oligonucleotide 6: comparable concentrations
control cell lines = assay: Cytotoxicity of antisense oligonucleotides in leukemia cell culture; format: cell-based
Source text: FIGS. 10 through 19 show the results of anti-sense oligonucleotides, having either phosphoramidate (N3'→P5') (FIGS. 10-15) or phosphorothioate (FIGS. 16-19) intersubunit linkages, on leukemia cell proliferation for different BCR-ABL leukemia cell lines and control cell lines.
as §5, §7, §8

[4] = test system: 24-mer hairpin target d(A10 C4 T10); assay: Gel band mobility shift assay, 24-mer hairpin target; format: binding; details: native conditions, 10 mM MgCl2, 80 mM Tris-borate, pH 8.2, 10° C.
Description: Triplex structures were further evaluated using gel band mobility shift assays.
Gel band mobility shift assay conditions were as follows: 20% acrylamide, 5% bisacrylamide in 10 mM MgCl2, 80 mM Tris-borate buffer, pH 8.2, 10° C. Gels were typically run under native (non-denaturing) conditions. In the figure the lanes are as follows: 1--10-mer phosphodiester Oligonucleotide 1; 2--10-mer phosphoramidate Oligonucleotide 3; 3--24-mer hairpin target d(A10 C4 T10) (FIG. 3, experiment 7).
The gel was stained with STAINS-ALL™ (Kodak, Rochester N.Y.) and imaged on a Molecular Dynamics (Sunnyvale, Calif.) densitometer.

[5] = Thermal dissociation of oligonucleotide hairpin duplexes; format: physicochemical
Description: Experiments were also performed to evaluate the stability of duplexes formed by oligonucleotides containing phosphoramidate linkages in both complementary strands.
The stability of duplexes formed by oligonucleotides containing phosphoramidate linkages in both complementary strands was evaluated essentially as described above.
All the molecules in FIG. 6 were constructed using 2'-deoxyribonucleotides.
as §4

[6] = versus Oligodeoxyribonucleotide 4

## Oligonucleotide 6: fully modified N3'→P5' phosphoramidate 11-mer complementary to the BCR-ABL junction B2A2 (antisense CTTCTTCCTTA; all [np], sugars by position and methylation of C not given here)
Complementary DNA strand; buffer A
  Tm of duplex with complementary DNA strand: 49.2 °C
Complementary DNA strand; [6]
  Tm increase relative to parent phosphodiester Oligodeoxyribonucleotide 4, DNA strand: 11.7 °C
Complementary RNA strand; buffer A
  Tm of duplex with complementary RNA strand: 72.4 °C
Complementary RNA strand; [6]
  Tm increase relative to parent phosphodiester Oligodeoxyribonucleotide 4, RNA strand: 22.9 °C
Complementary RNA strand; versus RNA oligomer 5
  duplex stability increase relative to homologous RNA oligomer 5, same RNA target: 18.0 °C
[1]
  ΔTm with single mismatch RNA target versus fully complementary: -12.2 °C
[2]; close to physiological conditions (buffer A)
  Tm of triplex: 32 °C
[2]; magnesium-containing buffer (buffer B)
  Tm of triplex: 42.2 °C
[3]
  triplex formation in gel band mobility shift assay: stable triplex formation; also recorded: confirmed by gel band mobility shift assay
HL60 cells
  cytotoxicity to HL60 cells: no apparent cytotoxicity; also recorded: negligible toxicity
HL60 cells; all concentrations (FIG. 11)
  tolerance by HL60 cells: well tolerated by the cells
K562 cells
  effect on proliferation of K562 cells / cytotoxicity: essentially no effect on the proliferation
BV173 cells
  shape of inhibition curves at later time points after partial release of inhibition: downward inflection at later time points
BV173 cells; all concentrations / FIG. 10 down to 5/2.5/2.5 μg/ml on days 0, 1, 2
  inhibition of BV173 leukemia cell proliferation: extremely effective at inhibiting the growth of the leukemia cells
BV173 cells; lowest concentrations 0.3125/0.15625/0.15625 μg/mL (FIG. 12)
  inhibition of BV173 leukemia cell proliferation: extremely effective at inhibiting leukemia cell proliferation

## 16mer phosphorothioate oligonucleotide (SEQ ID NO:27): 16mer phosphorothioate complementary to the B3A2 BCR/ABL fusion junction; 2 base pair mismatch to B2A2 (antisense GAGTTCAAAAGCCCTT; all phosphorothioate, sugars by position and methylation of C not given here)
BV173 cells; all concentrations (FIG. 17)
  tolerance by BV173 cells: tolerated by the cells

## phosphorothioate 16-mer: oligonucleotide 16-mer having fully modified phosphorothioate intersubunit linkages, containing the SEQ ID NO:6 sequence (antisense AAGGGCTTCTTCCTTA; all phosphorothioate, sugars by position and methylation of C not given here)
Control cell lines
  cytotoxicity: absence of cytotoxicity
BV173 cells
  shape of inhibition curves at later time points after partial release of inhibition: steep upward inflection at later time points
  inhibition of BV173 leukemia cell growth relative to phosphoramidate oligonucleotide 6: not effective at inhibiting BV173 leukemia cell proliferation
BV173 cells; FIGS. 18 and 19
  concentrations of release of inhibition relative to phosphoramidate oligonucleotide 6: much lower concentrations
BV173 cells; listed as 16-mer (SEQ ID NO:26)
  inhibition of BV173 leukemia cell growth relative to phosphoramidate oligonucleotide 6: not as effective as oligonucleotide 6

## phosphodiester decathymidilic acid [Oligonucleotide 1, reference compound]
[2]; buffers A and B, 260 and 284 nm
  triplex formation judged by melting curves: no corresponding triplex was formed; also recorded: did not form triplexes
[4]
  triplex formation in gel band mobility shift assay: no corresponding triplex was formed; also recorded: fails to form a triplex

## d(A10 C4 T10) [hairpin duplex]
[5]; buffer A
  Tm of the hairpin duplex: 55.7 °C
[5]; buffer B (10 mM MgCl2)
  Tm of the hairpin duplex: 61.5 °C
